From patent US20030012780A1, “Anti-inflammatory medicaments” (Karolinska Innovation AB, priority 1998, published 2003) come the findings set out here.

Assay [1] has as its system PAF-stimulated PMN locomotion in the rat mesentery. Put plainly: Intravital time lapse videomicroscopy of PMN locomotion in rat mesentery in vivo. To be noted: PAF 10^-7 M. The method, then:
Intravital time lapse videomicroscopy of PMN locomotion in vivo. PMN locomotion in rat mesenteric tissue was studied through use of intravital time lapse videomicroscopy according to the protocol previously described in detail (Werr et al., supra). In brief, Wistar rats (200-250 g) were anesthetized with equal parts of fluanison/fentanyl (10/0.2 mg/ml; Hypnorm; Janssen-Cilag Ltd., Saunderton, UK) and midazolam (5 mg/ml; Dormicum; Hoffman-La Roche, Basel, Switzerland) diluted 1:1 with sterile water (2 ml/kg i.m.). Body temperature was maintained at 37° C. by a heating pad connected to a rectal thermistor. After laparotomy, a segment of the ileum was exposed on a heated transparent pedestal to allow microscopic observation of the mesenteric microvasculature (Orthoplan microscope equipped with water immersion lens SW×25, NA 0.60; Leitz, Wetzlar, Germany). The microscopic image was televised and recorded on time lapse video (at 1/7 of normal speed). Analysis of leukocyte migration in the mesenteric tissue was made off line and the migration path of individual leukocytes was tracked with a digital image analyzer.
Leukocyte extravasation and migration was induced by soaking the exposed mesentery with 5 ml bicarbonate buffer solution (37° C.) containing PAF at a concentration of 10^−7 M. The tissue was then covered with a transparent plastic film to provide continues chemotactic stimulation by PAF. After 40 min of chemotactic stimulation, when numerous leukocytes had extravasated, time lapse recording of leukocyte migration was undertaken, first for 20 min to assess basal migration rates in response to PAF stimulation, and then for additional 40 min in the presence of PAF together with antibodies or peptides. The antibody concentration in the mixture administered to the tissue was for all antibodies 100 μg/ml. The peptide DGEA was similarly administered at a concentration of 25 mM and SLIDIP/RGDGW at a concentration of 500 μM. Due to dilution of the reagent in fluid covering the tissue these seemingly high doses, ˜10 times the documented effective blocking dose, were chosen in order to reach a sufficient concentration in proximity of the migrating leukocytes in the tissue. […] As previously documented, more than 85% of the migrating cells were neutrophils (Werr et al., supra).

Assay [2] relates to fMLP-stimulated human PMN locomotion in collagen (type I) gels. Briefly: PMN migration in gels of collagen (type I). The format is cell-based. The conditions noted are these: fMLP 10^-7 M; DGEA 5 mM; 30 min at 37° C. The protocol: PMN migration in gels of collagen (type I) and gelatin. Gels were formed in 24-well culture dishes (250 μl/well) by mixing 8.5 volumes of rat collagen solution or bovine gelatin solution (Sigma) at a concentration of 1.5 mg/ml with 1 volume of ×10 MEM (Life Technologies, Gaithersburg, Md.) and 0.5 volume of 4.4% NaHCO3 and fMLP (final concentration 10^−7 M). Purified human PMN (0.5×106), suspended in 200 μl of MEM containing 10^−9 fMLP were placed on top of the gels and incubated with or without mAb:s or peptides for 30 min at 37° C. The final concentration was for all mAb:s 20 μg/ml, for DGEA 5 mM and for SLIDIP/RGDGW 100 μM. Four to six experiments were run in duplicate gels for each reagent tested and ten randomly chosen microscopic fields (with a defined area of 0.0625 mm) were analyzed in each gel. The migration of PMN into the gel was analyzed with an Leitz Orthoplan microscope equipped with a water immersion lens (Leitz UO×55W, NA 0.80) by focusing down through the gel. The calibrated micrometer scale in the fine focus adjustment was used to determine the migration distance of individual PMN from the upper gel surface. The average migration distance of the three leading cells in each field was calculated and defined as the migration distance of the leading front.

The mark [3] stands for this setting: ten-fold higher concentrations of SLIDIP/RGDGW in some experiments.

For ACRGDGWMCG, the figures for the “effect on PMN migration (in words)” value in assay [1] (setting [3]) and in assay [1] (topical SLIDIP/RGDGW 500 μM) were “did not yield different effects” and “without effect”, respectively.

For the substance DGEA, in assay [1] (topical DGEA 25 mM, p<0.001), the “inhibition of PMN migration velocity” value came to 70±10%. Besides, in assay [2], the “migration distance of the leading front in collagen gels (in words)” value is “to the level of non-stimulated cells”.

As for SLIDIP, the “effect on PMN migration (in words)” value is “did not yield different effects” in assay [1] (setting [3]) and “without effect” in assay [1] (topical SLIDIP/RGDGW 500 μM).
